Source: patent publication US10913746B2, “Substituted 4-phenylpiperidines, their preparation and use” (The Trustees of Columbia University in the City of New York, priority 2014, dated 2021)
Counter-ions that a name gives are not always drawn.

Columns and labels:
serum RBP4 = serum RBP4 (Mus musculus (Mouse), UniProt Q00724); test: Serum RBP4 levels in Abca4−/− mice; type: in vivo; details: Example 112, present tense; 25 mg/kg for 12 weeks, mice starting at 17 weeks old
Procedure: (§1) Abca4−/− mice have A2E levels in the ˜15-19 pmoles/eye range at 17 weeks old. Mice, starting at 17 weeks old, were treated with 25 mg/kg of Compound 81 for 12 weeks.

Abca4−/− mouse model = test: Bisretinoid accumulation in Abca4−/− mouse model; type: in vivo; details: Example 112, present tense; 25 mg/kg for 12 weeks, mice starting at 17 weeks old
Procedure: as §1

[1] = tested on: subject afflicted with AMD or Stargardt disease; test: Administration to the eye of a subject afflicted with AMD or Stargardt disease; type: in vivo; details: Example 113, present tense; administered to the eye
Procedure: An amount of a compound 81 is administered to the eye of a subject afflicted with AMD.
An amount of a compound 81 is administered to the eye of a subject afflicted with Stargardt disease.

RBP4 = RBP4 (Homo sapiens (Human), UniProt P02753); details: cited from earlier work

O=C(c1n[nH]c2c1CCNC2)N1CCC(c2cccc(F)c2C(F)(F)F)CC1 [Compound 30, (4-(3-Fluoro-2-(trifluoromethyl)phenyl)piperidin-1-yl)(4,5,6,7-tetrahydro-1H-pyrazolo[3,4-c]pyridin-3-yl)methanone Hydrochloride]
serum RBP4 reduction (serum RBP4): significant serum RBP4 reduction
bisretinoid accumulation in Abca4−/− mouse model (Abca4−/− mouse model): inhibit bisretinoid accumulation

O=C(c1n[nH]c2c1CCNC2)N1CCC(c2ccc(F)c(F)c2C(F)(F)F)CC1 [Compound 34]
serum RBP4 reduction (serum RBP4): significant serum RBP4 reduction
bisretinoid accumulation in Abca4−/− mouse model (Abca4−/− mouse model): inhibit bisretinoid accumulation

O=C(c1n[nH]c2c1CNCC2)N1CCC(c2ccc(F)c(F)c2C(F)(F)F)CC1 [Compound 36, (4-(3,4-Difluoro-2-(trifluoromethyl)phenyl)piperidin-1-yl)(4,5,6,7-tetrahydro-1H-pyrazolo[4,3-c]pyridin-3-yl)methanone Trifluoroacetic Acid Salt]
serum RBP4 reduction (serum RBP4): significant serum RBP4 reduction
bisretinoid accumulation in Abca4−/− mouse model (Abca4−/− mouse model): inhibit bisretinoid accumulation

O=C(c1n[nH]c2c1CNC2)N1CCC(c2ccc(F)c(F)c2C(F)(F)F)CC1 [Compound 38, (4-(3,4-Difluoro-2-(trifluoromethyl)phenyl)piperidin-1-yl)(1,4,5,6-tetrahydropyrrolo[3,4-c]pyrazol-3-yl)methanone Hydrochloride]
serum RBP4 reduction (serum RBP4): significant serum RBP4 reduction
bisretinoid accumulation in Abca4−/− mouse model (Abca4−/− mouse model): inhibit bisretinoid accumulation

O=C(c1n[nH]c2c1CCNC2)N1CCC(c2cccc(F)c2Cl)CC1 [Compound 40, (4-(2-Chloro-3-fluorophenyl)piperidin-1-yl)(4,5,6,7-tetrahydro-1Hpyrazolo[3,4-c]pyridin-3-yl)methanone Hydrochloride]
serum RBP4 reduction (serum RBP4): significant serum RBP4 reduction
bisretinoid accumulation in Abca4−/− mouse model (Abca4−/− mouse model): inhibit bisretinoid accumulation

O=C(c1n[nH]c2c1CNCC2)N1CCC(c2cccc(F)c2Cl)CC1 [Compound 42, (4-(2-Chloro-3-fluorophenyl)piperidin-1-yl)(4,5,6,7-tetrahydro-1Hpyrazolo[4,3-c]pyridin-3-yl)methanone Hydrochloride]
serum RBP4 reduction (serum RBP4): significant serum RBP4 reduction
bisretinoid accumulation in Abca4−/− mouse model (Abca4−/− mouse model): inhibit bisretinoid accumulation

CC(=O)N1CCc2c(C(=O)N3CCC(c4ccc(F)c(F)c4C(F)(F)F)CC3)n[nH]c2C1 [Compound 81, 1-(3-(4-(3,4-Difluoro-2-(trifluoromethyl)phenyl)piperidine-1-carbonyl)-4,5-dihydro-1H-pyrazolo[3,4-c]pyridin-6(7H)-yl)ethanone]
treatment of subject afflicted with AMD [1]: effective to treat the subject
treatment of subject afflicted with Stargardt disease [1]: effective to treat the subject

CC1=C(/C=C/C(C)=C/C=C/C(C)=C/C(=O)Nc2ccc(O)cc2)C(C)(C)CCC1 [fenretinide, N-(4-hydroxy-phenyl)retinamide]
binding to RBP4, displacement of all-trans retinol (RBP4): bind to RBP4
